Key:
Experiment in all cases: relative viability (nuclei count vs DMSO), 5 days (fraction); higher = more cells survive
[1] = compound: C1=CC2=NC=CN=C2C=C1/C=C/3\C(=O)NC(=O)S3 + O=C(c1cc(Cc2n[nH]c(=O)c3ccccc23)ccc1F)N1CCN(C(=O)C2CC2)CC1 [Olaparib] (partner 8 µM)
How it was run: (§1)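 Nuclei were stained with Hoechst during a one-step fixation (final 0.05% Triton X-100, 1% formaldehyde, 1 ug/ml Hoechst) carried out 5 days after dosing, then counted on 4× images. The cells, lung cancer lines in 1536-well plates, had been dosed by pin tool the day after seeding with one drug alone or a fixed anchor-drug dose plus five library-drug doses (not always all listed) in √10 steps. Relative viability is the nuclei count in treated wells divided by that in vehicle wells, and each value is the median of duplicate plates.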

[2] = compound: C1=CC2=NC=CN=C2C=C1/C=C/3\C(=O)NC(=O)S3 + NC(=O)Nc1cc(-c2cccc(F)c2)sc1C(=O)N[C@H]1CCCNC1 [AZD7762] (partner 0.2 µM)
How it was run: as §1

[3] = compound: CCN1CCN(c2ccc(Nc3cc(N(C)C(=O)Nc4c(Cl)c(OC)cc(OC)c4Cl)ncn3)cc2)CC1 [BGJ398] + COc1cc2c(Oc3ccc(NC(=O)C4(C(=O)Nc5ccc(F)cc5)CC4)cc3F)ccnc2cc1OCCCN1CCOCC1 [Foretinib] (partner 0.25 µM)
How it was run: as §1

[4] = compound: CCN1CCN(c2ccc(Nc3cc(N(C)C(=O)Nc4c(Cl)c(OC)cc(OC)c4Cl)ncn3)cc2)CC1 [BGJ398] + C[C@@H](Oc1cc(-c2cnn(C3CCNCC3)c2)cnc1N)c1c(Cl)ccc(F)c1Cl [Crizotinib] (partner 1 µM)
How it was run: as §1

| Cell Line | relative viability ([1]; first compound 0.02 µM) | relative viability ([1]; first compound 0.06325 µM) | relative viability ([1]; first compound 0.2 µM) | relative viability ([1]; first compound 0.6325 µM) | relative viability ([1]; first compound 2 µM) | relative viability ([2]; first compound 0.02 µM) | relative viability ([2]; first compound 0.06325 µM) | relative viability ([2]; first compound 0.2 µM) | relative viability ([2]; first compound 0.6325 µM) | relative viability ([2]; first compound 2 µM) | relative viability ([3]; first compound 0.01 µM) | relative viability ([3]; first compound 0.03162 µM) | relative viability ([3]; first compound 0.1 µM) | relative viability ([3]; first compound 0.3162 µM) | relative viability ([3]; first compound 1 µM) | relative viability ([4]; first compound 0.01 µM) | relative viability ([4]; first compound 0.03162 µM) | relative viability ([4]; first compound 0.1 µM) | relative viability ([4]; first compound 0.3162 µM) | relative viability ([4]; first compound 1 µM) |
| --- | --- | --- | --- | --- | --- | --- | --- | --- | --- | --- | --- | --- | --- | --- | --- | --- | --- | --- | --- | --- |
| NCI-H647 | 0.438 | 0.532 | 0.537 | 0.51 | 0.496 | 0.714 | 0.403 | 0.572 | 0.425 | 0.382 | 1.09 | 1.12 | 1.12 | 1.39 | 1.27 | 1.03 | 1.01 | 1.16 | 1.06 | 1.03 |
| NCI-H650 | 0.422 | 0.397 | 0.466 | 0.444 | 0.267 | 0.866 | 1.06 | 1.17 | 0.959 | 0.69 | 0.983 | 1.06 | 1.06 | 1.04 | 0.928 | 0.57 | 0.791 | 0.808 | 0.857 | 0.727 |
| NCI-H727 | 0.852 | 0.579 | 0.637 | 0.695 | 0.538 | 0.597 | 0.63 | 0.737 | 0.678 | 0.337 | 1.12 | 0.773 | 0.822 | 0.848 | 0.927 | 0.809 | 0.853 | 0.795 | 0.857 | 0.711 |
| NCI-H838 | 0.731 | 0.872 | 0.795 | 0.71 | 0.636 | 0.915 | 0.915 | 0.914 | 0.861 | 0.685 | 0.927 | 1.08 | 0.962 | 0.889 | 0.914 | 0.804 | 0.837 | 0.781 | 0.782 | 0.652 |
| NCI-H1355 | 0.656 | 0.766 | 0.77 | 0.699 | 0.726 | 0.789 | 0.67 | 0.749 | 0.691 | 0.544 | 0.925 | 0.98 | 1.03 | 0.951 | 0.898 | 1.01 | 1.02 | 1.03 | 0.962 | 1.08 |
| NCI-H1437 | 0.584 | 0.648 | 0.623 | 0.643 | 0.653 | 1.18 | 1.11 | 1.09 | 1.09 | 0.609 | 1.42 | 1.29 | 1.27 | 1.25 | 1.28 | 0.91 | 0.924 | 0.941 | 1.02 | 0.877 |
| NCI-H1651 | 0.181 | 0.154 | 0.183 | 0.178 | 0.188 | 0.472 | 0.289 | 0.508 | 0.471 | 0.417 | 0.753 | 0.781 | 0.94 | 0.73 | 0.677 | 0.843 | 0.865 | 0.874 | 0.876 | 0.892 |
| NCI-H1666 | 0.746 | 0.713 | 0.709 | 0.695 | 0.728 | 0.748 | 0.731 | 0.865 | 0.827 | 0.608 | 1.03 | 1.01 | 0.963 | 0.945 | 1.01 | 0.944 | 1.06 | 0.938 | 1.3 | 0.96 |
| NCI-H1703 | 0.428 | 0.405 | 0.434 | 0.27 | 0.322 | 0.126 | 0.109 | 0.135 | 0.124 | 0.128 | 0.37 | 0.329 | 0.342 | 0.278 | 0.331 | 0.694 | 1.17 | 0.796 | 0.638 | 0.863 |
| NCI-H1734 | 0.613 |  | 0.673 | 0.562 | 0.226 | 0.579 |  | 0.586 | 0.469 | 0.444 | 0.862 | 0.879 | 0.893 | 0.785 | 0.827 | 0.611 | 0.647 | 0.719 | 0.594 | 0.554 |
| NCI-H1755 | 0.774 | 0.86 | 0.886 | 0.872 | 0.908 | 0.473 | 0.405 | 0.47 | 0.399 | 0.476 | 0.88 | 0.985 | 0.919 | 0.929 | 0.955 | 0.907 | 0.888 | 0.884 | 0.868 | 0.84 |
| NCI-H1915 | 0.25 | 0.248 | 0.281 | 0.249 | 0.258 | 0.704 | 0.712 | 0.705 | 0.703 | 0.713 | 1.05 | 1.06 | 1.14 | 1.1 | 1.09 | 0.847 | 0.869 | 0.998 | 0.936 | 0.886 |
| NCI-H1944 | 0.384 | 0.391 | 0.333 | 0.412 | 0.418 | 0.52 | 0.448 | 0.535 | 0.403 | 0.437 | 0.946 | 0.889 | 0.941 | 0.831 | 0.826 | 0.994 | 1.07 | 1.13 | 1.09 | 1.19 |
| NCI-H1975 | 0.728 | 0.743 | 0.805 | 0.768 | 0.794 | 0.589 | 0.632 | 0.705 | 0.747 | 0.418 | 0.989 | 1.12 | 1.06 | 0.879 | 0.97 | 1.03 | 0.979 | 1.1 | 1.07 | 0.948 |
| NCI-H1993 | 0.976 | 1.06 | 1.05 | 1.05 | 0.182 | 0.772 | 0.801 | 0.963 | 0.538 | 0.432 | 0.833 | 0.67 | 0.883 | 0.842 | 0.735 | 0.866 | 0.794 | 0.912 | 0.959 | 0.922 |
| NCI-H2085 | 0.813 | 0.73 | 0.798 | 0.821 | 0.754 | 0.972 | 0.845 | 0.958 | 0.984 | 0.918 | 1 | 1.12 | 0.909 | 0.903 | 0.781 | 0.836 | 0.871 | 1.05 | 0.892 | 1.01 |
| NCI-H2087 | 0.484 | 0.646 | 0.57 | 0.631 | 0.447 | 1.14 | 1.36 | 1.21 | 1.21 | 1.26 | 1.05 | 1.33 | 1.18 | 1.15 | 1.09 | 0.923 | 0.831 | 0.865 | 0.911 | 0.863 |
| NCI-H2126 | 0.932 | 0.946 | 0.841 | 0.904 | 0.799 | 0.886 | 1.16 | 0.952 | 0.937 | 0.581 | 1.19 | 1.28 | 1.26 | 1.2 | 1.12 | 1.12 | 1.01 | 0.997 | 0.955 | 1.05 |
| NCI-H2170 | 0.55 | 0.594 | 0.609 | 0.577 | 0.563 | 0.849 | 0.866 | 0.888 | 0.766 | 0.874 | 1.02 | 1.04 | 1.06 | 0.977 | 1.04 | 1.09 | 1.22 | 1.29 | 1.25 | 1.31 |
| NCI-H2347 | 0.528 | 0.583 | 0.553 | 0.635 | 0.543 | 0.773 | 0.692 | 0.778 | 0.745 | 0.704 | 1.02 | 1.12 | 0.838 | 0.717 | 0.741 | 0.593 | 0.878 | 0.728 | 0.962 | 0.698 |
| NCI-H2405 | 0.791 | 0.999 | 0.851 | 0.848 | 0.712 | 0.824 | 0.924 | 0.762 | 0.722 | 0.428 | 1.03 | 1.1 | 1.1 | 1.09 | 0.972 | 0.838 | 0.906 | 0.911 | 0.919 | 0.849 |
| NCI-H3122 | 0.552 | 0.679 | 0.568 | 0.556 | 0.619 | 0.989 | 1 | 0.984 | 0.991 | 0.913 | 1.01 | 0.973 | 0.963 | 0.89 | 0.971 | 0.229 | 0.271 | 0.282 | 0.295 | 0.272 |
| PC-3 [JPC-3] | 1.07 | 1.18 | 1.11 | 1.18 | 1.13 | 0.966 | 1.02 | 0.9 | 0.846 | 0.713 | 1.15 |  | 1.06 | 1 | 1.02 | 1.02 |  | 1.09 | 0.971 | 0.961 |
| PC-14 | 0.25 | 0.363 | 0.263 | 0.227 | 0.277 | 0.421 | 0.272 | 0.423 | 0.322 | 0.299 | 0.905 | 0.618 | 1.02 | 0.802 | 1.03 | 0.925 | 0.883 | 0.859 | 0.937 | 0.898 |
| RERF-LC-KJ | 0.893 | 0.937 | 1 | 0.888 | 0.939 | 0.707 | 0.894 | 0.962 | 0.943 | 0.624 | 0.912 | 0.899 | 0.961 | 0.911 | 0.851 | 0.807 | 0.928 | 0.852 | 0.871 | 0.788 |

— the supplement of paper PMC10307832
